Patent US20110294764A1, “2-METHYLENE-19,26-NOR-(20S)-1alpha-HYDROXYVITAMIN D3” (priority 2009, published 2011)
“And” between values parts separate entries of the source, which are not always exact repeats. Identical values can stand only once. “Also recorded” adds a separate entry of the source. Like-named read-outs stand apart in the source and are kept apart here. Blank lines part the entries; values can stand above or below the compound they belong to.

What was measured:
[1] = tested on: Sprague-Dawley rats; settings: cited from earlier work; for Bone calcium mobilization (change from vehicle, mg/dL): as reported by Grzywacz et al. 2007
[2] = tested on: Sprague-Dawley rats; settings: cited from earlier work; for Intestinal calcium transport (change from vehicle, serosal/mucosal ratio): as reported by Grzywacz et al. 2007
[3] = tested on: Sprague-Dawley rats; experiment: Bone calcium mobilization (serum calcium); format: in vivo, rat; settings: for Bone calcium mobilization (change from vehicle, mg/dL): vehicle subtracted
Protocol: (§1) Male, weanling Sprague-Dawley rats were placed on Diet 11 (0.47% Ca) diet+AEK oil for one week followed by Diet 11 (0.02% Ca)+AEK oil for 3 weeks. The rats were then switched to a diet containing 0.47% Ca for one week followed by two weeks on a diet containing 0.02% Ca. Dose administration began during the last week on 0.02% calcium diet. Four consecutive intraperitoneal doses were given approximately 24 hours apart. Twenty-four hours after the last dose, blood was collected from the severed neck and the concentration of serum calcium determined as a measure of bone calcium mobilization. The first 10 cm of the intestine was also collected for intestinal calcium transport analysis using the everted gut sac method.

[4] = target: T1, recombinant vitamin D receptor (Rattus norvegicus, UniProt P13053); experiment: Vitamin D receptor binding (competitive, 3H-1,25(OH)2D3)
T1 construct: Fun-length recombinant rat receptor was expressed in E. coli; histidine tag (C); made in house; host or cells: E. coli BL21(DE3) Codon Plus RIL
T1 sequence (P13053 1-423): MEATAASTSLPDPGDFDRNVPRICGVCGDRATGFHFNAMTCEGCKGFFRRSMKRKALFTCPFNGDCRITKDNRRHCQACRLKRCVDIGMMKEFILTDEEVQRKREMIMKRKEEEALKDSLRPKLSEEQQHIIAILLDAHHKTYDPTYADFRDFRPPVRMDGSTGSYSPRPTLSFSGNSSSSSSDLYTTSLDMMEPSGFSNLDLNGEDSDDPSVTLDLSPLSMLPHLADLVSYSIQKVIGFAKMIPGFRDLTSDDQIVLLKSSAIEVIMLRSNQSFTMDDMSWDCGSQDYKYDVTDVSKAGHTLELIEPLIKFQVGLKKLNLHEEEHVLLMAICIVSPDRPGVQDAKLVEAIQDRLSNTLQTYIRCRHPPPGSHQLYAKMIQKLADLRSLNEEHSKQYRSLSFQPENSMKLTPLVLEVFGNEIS
Protocol: Fun-length recombinant rat receptor was expressed in E. coli BL21(DE3) Codon Plus RIL cells and purified to homogeneity using two different column chromatography systems. The first system was a nickel affinity resin that utilizes the C-terminal histidine tag on this protein. The protein that was eluted from this resin was further purified using ion exchange chromatography (S-Sepharose Fast How). Aliquots of the purified protein were quick frozen in liquid nitrogen and stored at −80° C. until use. For use in binding assays, the protein was diluted in TEDK50 (50 mM […], 1.5 mM EDTA, pH 7.4, 5 mM DTT, 150 mM KCl) with 0.1% Chaps detergent. The receptor protein and ligand concentration was optimized such that no more than 20% of the added radiolabeled ligand was bound to the receptor.
Unlabeled ligands were dissolved in ethanol and the concentrations determined using UV spectrophotometry (1,25(OH)2D3: molar extinction coefficient=18,200 and λmax=265 nm; Analogs: molar extinction coefficient=42,000 and λmax=252 nm). Radiolabeled ligand (^3H-1,25(OH)2D3, ˜159 Ci/mmole) was added in ethanol at a final concentration of 1 nM.
Radiolabeled and unlabeled ligands were added to […] of the diluted protein at a final ethanol concentration of ≦10%, mixed and incubated overnight on ice to reach binding equilibrium. […] Total binding was determined from the tubes containing only radiolabeled ligand.

[5] = tested on: HL-60 cells; experiment: HL-60 differentiation (nitro blue tetrazolium reduction); format: cell-based, human; settings: FIG. 2
Protocol: The study drugs were dissolved in ethanol and the concentrations determined using UV spectrophotometry. Serial dilutions were prepared so that a range of drug concentrations could be tested without changing the final concentration of ethanol ([…]) present in the cell cultures.
Human promyelocytic leukemia (HL60) cells were grown in RPMI-1640 medium containing 10% fetal bovine serum. The cells were incubated at 37° C. in the presence of 5% CO2.
HL60 cells were plated at 1.2×10^5 cells/ml. Eighteen hours after plating, cells in duplicate were treated with drug. Four days later, the cells were harvested and a nitro blue tetrazolium reduction assay was performed (Collins et al., 1979; J. Exp. Med. 149:969-974). The percentage of differentiated cells was determined by counting a total of 200 cells and recording the number that contained intracellular black-blue formazan deposits. Verification of differentiation to monocytic cells was determined by measuring phagocytic activity (data not shown).

[6] = tested on: 24-hydroxylase (24OHase) gene promoter; experiment: In vitro transcription assay (24-hydroxylase promoter-luciferase in ROS 17/2.8 bone cells); format: cell-based; settings: FIG. 3
Protocol: Transcription activity was measured in ROS 17/2.8 (bone) cells that were stably transfected with a 24-hydroxylase (24OHase) gene promoter upstream of a luciferase reporter gene (Arbour et al., 1998). Cells were given a range of doses. Sixteen hours after dosing the cells were harvested and luciferase activities were measured using a luminometer. RLU=relative luciferase units.

[7] = tested on: Sprague-Dawley rats; experiment: Intestinal calcium transport (everted gut sac method); format: in vivo, rat; settings: for Intestinal calcium transport (change from vehicle, serosal/mucosal ratio): vehicle subtracted
Protocol: as §1

[8] = 260 pmol dose, data of Grzywacz et al. 2007

SMILES: C=C1[C@H](O)CC(=C/C=C2\CCC[C@]3(C)[C@@H]([C@@H](C)CCCC(C)C)CC[C@@H]23)C[C@H]1O [26Me, 2-methylene-19-nor-(20S)-1α-hydroxyvitamin D3]
Bone calcium mobilization activity, in words [1, 8]: significant activity
Bone calcium mobilization (change from vehicle, mg/dL) ([1]; dose level 87 pmol): 2.0 mg/dL
Bone calcium mobilization (change from vehicle, mg/dL) ([1]; dose level 260 pmol): 4.0 mg/dL
Bone calcium mobilization (change from vehicle, mg/dL) ([1]; dose level 780 pmol): 5.3 mg/dL
Bone calcium mobilization (change from vehicle, mg/dL) ([1]; dose level 2340 pmol): 5.6 mg/dL
Intestinal calcium transport activity, in words [2, 8]: significant activity
Intestinal calcium transport (change from vehicle, serosal/mucosal ratio) ([2]; dose level 87 pmol): 6.6 serosal/mucosal ratio
Intestinal calcium transport (change from vehicle, serosal/mucosal ratio) ([2]; dose level 260 pmol): 5.3 serosal/mucosal ratio
Intestinal calcium transport (change from vehicle, serosal/mucosal ratio) ([2]; dose level 780 pmol): 2.3 serosal/mucosal ratio
Intestinal calcium transport (change from vehicle, serosal/mucosal ratio) ([2]; dose level 2340 pmol): 5.4 serosal/mucosal ratio
Bone calcemic activity as multiple of that of 26N ([3]; at 2340 pmol versus 26N at the higher dose of 7020 pmol): ~10 times

Binding to the nuclear vitamin D receptor compared with 1,25(OH)2D3 (in words) ([4]; FIG. 1): same affinity as 1,25(OH)2D3
SMILES: C=C1[C@H](O)CC(=C/C=C2\CCC[C@@]3(C)C2CCC3[C@@H](C)CCCCC)C[C@H]1O (stereo in doubt) [26N, 2-methylene-19,26-nor-(20S)-1α-hydroxyvitamin D3]
Binding to the nuclear vitamin D receptor compared with 1,25(OH)2D3 (in words) ([4]; FIG. 1, listed as 2-Methylene-19,26-nor-(20S)-1α-hydroxyvitamin D3): approximately equally effective as 1,25-(OH)2D3
Potency in causing differentiation of HL-60 cells into monocytes compared with 1,25(OH)2D3 (in words) [5]: same potency as 1,25(OH)2D3
Potency in causing differentiation of HL-60 cells into monocytes compared with 1,25(OH)2D3 (in words) ([5]; listed as 2-Methylene-19,26-nor-(20S)-1α-hydroxyvitamin D3): same potency as 1,25-(OH)2D3
Potency in increasing transcription of the 24-hydroxylase gene compared with 1,25(OH)2D3 (in words) ([6]; ROS 17/2.8 bone cells): about one log less potent than 1,25(OH)2D3
Times less potent than 1,25-(OH)2D3 in stimulating 24-OHase gene expression ([6]; bone cells): about 10 times
Intestinal calcium transport (calcemic) activity, in words ([7]; 260 pmol dose): essentially no calcemic activity
Calcemic activity (intestinal calcium transport), in words ([7]; overall, FIGS. 5A, 5B): very low; also recorded: noticeably less active than 1,25-(OH)2D3
Times less potent than 1,25(OH)2D3 in promoting active calcium transport in the rat gut ([7]; rat, FIGS. 5A and 5B): at least 10 times
Intestinal calcium transport (change from vehicle, serosal/mucosal ratio) ([7]; rat, dose level 260 pmol): 0.1 serosal/mucosal ratio
Intestinal calcium transport (change from vehicle, serosal/mucosal ratio) ([7]; rat, dose level 7020 pmol): 8.7 serosal/mucosal ratio and 7.2 serosal/mucosal ratio
Intestinal calcium transport (change from vehicle, serosal/mucosal ratio) ([7]; rat, dose level 35100 pmol): 4.6 serosal/mucosal ratio
Bone calcium mobilization (calcemic) activity, in words ([3]; 260 pmol dose): essentially no calcemic activity
Bone calcium mobilization activity, in words ([3]; 7020 pmol): little bone calcium mobilization activity
Times less active than 1,25-(OH)2D3 on bone calcium mobilization ([3]; as shown at the dose of 7020 pmol, FIG. 4B): ~30 times
Calcemic activity (bone calcium mobilization), in words ([3]; overall, FIGS. 4A, 4B): very low
Times less potent than 1,25(OH)2D3 in releasing bone calcium stores ([3]; rat, FIGS. 4A and 4B): approximately 30 times
Bone calcium mobilization (change from vehicle, mg/dL) ([3]; rat, dose level 260 pmol, four intraperitoneal doses): -0.1 mg/dL
Bone calcium mobilization (change from vehicle, mg/dL) ([3]; rat, dose level 7020 pmol): 0.6 mg/dL and 0.8 mg/dL
Bone calcium mobilization (change from vehicle, mg/dL) ([3]; rat, dose level 35100 pmol): 4.0 mg/dL
